# Laboratory results: US4091114A, “Pharmaceutically active 2-omega-aminoalkoxydiphenylmethanes” (Mitsubishi Chemical Industries Limited, priority 1976, dated 1978)
# Structures can show the parent of a compound that is named as a salt.
# Tests used:
# [1] = tested on: reserpine induced hypothermia; assay: Antireserpine activity in mice (antagonism of reserpine induced hypothermia); type: in vivo
# in vivo = conditions: mouse, ip
# mice = conditions: mouse, in vivo, ip
# [2] = mice, i.p., reserpine 5 mg/kg i.p., Amitriptyline = 1
smiles,measurement,setting,value
CN(C)CCCOc1ccccc1Cc1ccccc1 [2-(3-dimethylaminopropoxy)diphenylmethane hydrochloride],antidepressant activity (in words),"[1]; mouse, in vivo",no such activity
CN(C)CCCCOc1ccccc1Cc1ccccc1.Cl [2-(4-dimethylaminobutoxy) diphenyl methane hydrochloride],"Antireserpine activity, Relative Potency","[1]; mouse, in vivo",0
CCNCCCCOc1ccccc1Cc1ccccc1 [2-(4-ethylaminobutoxy)diphenylmethane hydrochloride],"Antireserpine activity, Relative Potency","[1]; mouse, in vivo",0.53
same,LD50,in vivo,120 mg/kg
CN(C)CCCCCOc1ccccc1Cc1ccccc1 [2-(5-dimethylaminopentyloxy)diphenylmethane hydrochloride],"Antireserpine activity, Relative Potency",[1]; [2],0.23
same,antidepressant activity (in words),"[1]; mouse, in vivo",inferior antidepressant activity
CNCCCCCOc1ccccc1Cc1ccccc1 [2-(5-methylaminopentyloxy)diphenylmethane hydrochloride],"Antireserpine activity, Relative Potency","[1]; mouse, in vivo",0.54
same,LD50,in vivo,160 mg/kg
c1ccc(Cc2ccccc2OCCCCN2CCCCC2)cc1 [2-[4-(1-piperidyl)butoxy]diphenylmethane hydrochloride],"Antireserpine activity, Relative Potency",[1]; [2],0.41
CN(C)CCC=C1c2ccccc2CCc2ccccc21 [Amitriptyline],LD50,mice,65 mg/kg
